Reference: patent US12630530B2, “FGFR inhibitor compound and use thereof” (HENAN MEDINNO PHARMACEUTICAL TECHNOLOGY CO., LTD., priority 2020, dated 2026)

Tests used:
Format in all cases: biochemical
[1] = target: T1, FGFR1 V561M (Homo sapiens, UniProt P11362, V561M); experiment: Assay I: inhibitory activity against FGFR mutants (HTRF KinEASE-TK); details: Table 1; ATP working concentration 5 μM, substrate TK 1 μM
T1 construct: purchased Signalchem F04-13G
Procedure: (§1) Assay I: Determination of Inhibitory Activity Against FGFR Mutants
(§2) 1×Kinase reaction buffer was formulated with 1×volume of 5× kinase reaction buffer and 4×volume of water; 5 mM MgCl2; and 1 mM DTT.
(§3) 2.3 Screening of Compounds: • 1. […] Adding 1 μl of the compound diluted in buffer to each well, sealing the plate with a sealing membrane and centrifuging the plate at 1000 g for 30 seconds and leaving it at room temperature for 10 minutes. • 6. Formulating 2.5×TK-substrate-biotin and ATP mixture with 1× enzyme reaction buffer and adding 2 μl of K-substrate-biotin/ATP mixture to the reaction plate. • 7. Sealing the plate with a sealing membrane and centrifuging the plate at 1000 g for 30 seconds and allowing it to react at room temperature for 50 minutes. • 8. […] 3. Data Analysis
(§4) 3.3 Calculation of IC50 and plotting of inhibition curves for the compounds.
(§5) The IC50 (half inhibition concentration) of a compound was obtained using the following non-linear fitting equation, wherein data analysis was performed using Graphpad 6.0 software.
(§6) Data were exported from Envision and analyzed manually. The ratios were converted to inhibition rates and IC50 was calculated by Prism GraphPad 6.0 from the inhibition rates. IC50 was calculated again by the ratios to verify accuracy of the results.

[2] = target: T2, FGFR2 V564F (Homo sapiens, UniProt P21802, V564F); experiment: as above; details: Table 1; ATP working concentration 10 μM, substrate TK 1 μM
T2 construct: purchased Signalchem F05-12FG
Procedure: as §1, §2, §3, §4, §5, §6

[3] = target: T3, FGFR3 V555M (Homo sapiens, UniProt P22607, V555M); experiment: as above; details: Table 1; ATP working concentration 20 μM, substrate TK 1 μM
T3 construct: purchased Signalchem F06-12GG
Procedure: as §1, §2
(§7) 2.3 Screening of Compounds: • 1. Diluting a compound 4-fold in a dilution plate with DMSO, with a starting compound concentration of 2 mM (4 mM for Nentedanib). • 2. Diluting the compound 40-fold into 1× kinase reaction buffer and shaking it on a shaker for 20 minutes. • 3. […] Adding 1 μl of the compound diluted in buffer to each well, sealing the plate with a sealing membrane and centrifuging the plate at 1000 g for 30 seconds and leaving it at room temperature for 10 minutes. • 6. Formulating 2.5×TK-substrate-biotin and ATP mixture with 1× enzyme reaction buffer and adding 2 μl of K-substrate-biotin/ATP mixture to the reaction plate. • 7. Sealing the plate with a sealing membrane and centrifuging the plate at 1000 g for 30 seconds and allowing it to react at room temperature for 50 minutes. • 8. Formulating 4×Sa-XL 665 (250 nM) with HTRF assay buffer. • 9. Adding 5 μl Sa-XL 665 and 5 μl TK-Antibody-Cryptate to each well, centrifuging it at 1000 g for 30 seconds, and allowing it to react for 1 hour at room temperature. • 10. Reading fluorescence signals at 615 nm (Cryptate) and 665 nm (XL665) with Biotek. 3. Data Analysis
(§8) 3.1 Calculation of the ratio for each well: the ratio was calculated as 665/615 nm.
as §4, §5, §6

[4] = target: T4, VEGFR2 (Homo sapiens, UniProt P35968); experiment: Assay I: kinase inhibition (HTRF KinEASE-TK), VEGFR2; details: Table 1; ATP working concentration 5 μM, substrate TK 1 μM
T4 construct: purchased Carna 08-191

[5] = target: T4, VEGFR2; experiment: Assay III: kinase inhibition (method of Assay I, different operator), VEGFR2; details: Table 3; same method as Assay I, different experimental operator
Procedure: as §2
2.3 Screening of Compounds: • 1. Diluting a compound 4-fold in a dilution plate with DMSO, with a starting compound concentration of 2 mM (4 mM for Nentedanib). • 2. Diluting the compound 40-fold into 1× kinase reaction buffer and shaking it on a shaker for 20 minutes. • 3. Formulating 2×FGFR1 V561M/FGFR2 V564F/FGFR3 K650E/VEGFR2 with 1× of enzyme reaction buffer. • 4. Adding 2 μl FGFR1 V561M/FGFR2 V564F/FGFR3 K650E/VEGFR2 kinase (formulated in step 3) to each well of the reaction plate. • 5. Adding 1 μl of the compound diluted in buffer to each well, sealing the plate with a sealing membrane and centrifuging the plate at 1000 g for 30 seconds and leaving it at room temperature for 10 minutes. • 6. Formulating 2.5×TK-substrate-biotin and ATP mixture with 1× enzyme reaction buffer and adding 2 μl of K-substrate-biotin/ATP mixture to the reaction plate. • 7. Sealing the plate with a sealing membrane and centrifuging the plate at 1000 g for 30 seconds and allowing it to react at room temperature for 50 minutes. • 8. Formulating 4×Sa-XL 665 (250 nM) with HTRF assay buffer. • 9. Adding 5 μl Sa-XL 665 and 5 μl TK-Antibody-Cryptate to each well, centrifuging it at 1000 g for 30 seconds, and allowing it to react for 1 hour at room temperature. • 10. Reading fluorescence signals at 615 nm (Cryptate) and 665 nm (XL665) with Biotek. 3. Data Analysis
as §8, §4
The IC50 (half inhibition concentration) of a compound was obtained using the following non-linear fitting equation, wherein data analysis was performed using Graphpad 6.0 software. Y=Bottom+(Top−Bottom)/(1+10^((Log IC50−X)*Hill Slope)) • X: log value of compound concentration; and Y: inhibition rate (% inh) 3.4 Validation of Results
as §6
(§9) Assay III: Determination of Inhibitory Activity Against FGFR Mutants

[6] = target: T3, FGFR3 V555M; experiment: Assay III: inhibitory activity against FGFR mutants (method of Assay I, different operator); details: Table 3; same method as Assay I, different experimental operator
Procedure: as §2, §7, §8, §4, §5, §6, §9

[7] = target: T1, FGFR1 V561M; experiment: as above; details: Table 3; same method as Assay I, different experimental operator
Procedure: as §2, §7, §8, §4, §5, §6, §9

[8] = target: T2, FGFR2 V564F; experiment: as above; details: Table 3; same method as Assay I, different experimental operator
Procedure: as §2, §7, §8, §4, §5, §6, §9

T2 sequence (P21802 22-821 V564F): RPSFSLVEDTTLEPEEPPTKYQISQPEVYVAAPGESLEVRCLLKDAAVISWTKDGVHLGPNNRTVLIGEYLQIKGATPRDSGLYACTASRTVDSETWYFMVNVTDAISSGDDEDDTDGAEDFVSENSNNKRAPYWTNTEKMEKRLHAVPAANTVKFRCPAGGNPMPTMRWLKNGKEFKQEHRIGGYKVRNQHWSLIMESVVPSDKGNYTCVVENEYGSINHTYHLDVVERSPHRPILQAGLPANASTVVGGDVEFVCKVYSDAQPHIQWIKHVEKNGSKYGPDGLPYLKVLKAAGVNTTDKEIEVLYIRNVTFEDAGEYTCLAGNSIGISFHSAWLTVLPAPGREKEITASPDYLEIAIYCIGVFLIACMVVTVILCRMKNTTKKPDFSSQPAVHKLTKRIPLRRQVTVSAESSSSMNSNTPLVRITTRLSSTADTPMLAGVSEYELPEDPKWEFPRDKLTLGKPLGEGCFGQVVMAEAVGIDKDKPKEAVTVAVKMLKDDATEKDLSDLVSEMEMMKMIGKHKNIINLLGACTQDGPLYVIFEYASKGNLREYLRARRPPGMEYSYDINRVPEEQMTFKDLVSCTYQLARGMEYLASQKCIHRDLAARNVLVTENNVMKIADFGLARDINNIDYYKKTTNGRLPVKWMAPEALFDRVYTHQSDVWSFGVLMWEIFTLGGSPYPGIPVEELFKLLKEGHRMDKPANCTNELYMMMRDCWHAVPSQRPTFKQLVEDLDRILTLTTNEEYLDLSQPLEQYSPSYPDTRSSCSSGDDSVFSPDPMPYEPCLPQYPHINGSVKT
T4 sequence (P35968 20-1356): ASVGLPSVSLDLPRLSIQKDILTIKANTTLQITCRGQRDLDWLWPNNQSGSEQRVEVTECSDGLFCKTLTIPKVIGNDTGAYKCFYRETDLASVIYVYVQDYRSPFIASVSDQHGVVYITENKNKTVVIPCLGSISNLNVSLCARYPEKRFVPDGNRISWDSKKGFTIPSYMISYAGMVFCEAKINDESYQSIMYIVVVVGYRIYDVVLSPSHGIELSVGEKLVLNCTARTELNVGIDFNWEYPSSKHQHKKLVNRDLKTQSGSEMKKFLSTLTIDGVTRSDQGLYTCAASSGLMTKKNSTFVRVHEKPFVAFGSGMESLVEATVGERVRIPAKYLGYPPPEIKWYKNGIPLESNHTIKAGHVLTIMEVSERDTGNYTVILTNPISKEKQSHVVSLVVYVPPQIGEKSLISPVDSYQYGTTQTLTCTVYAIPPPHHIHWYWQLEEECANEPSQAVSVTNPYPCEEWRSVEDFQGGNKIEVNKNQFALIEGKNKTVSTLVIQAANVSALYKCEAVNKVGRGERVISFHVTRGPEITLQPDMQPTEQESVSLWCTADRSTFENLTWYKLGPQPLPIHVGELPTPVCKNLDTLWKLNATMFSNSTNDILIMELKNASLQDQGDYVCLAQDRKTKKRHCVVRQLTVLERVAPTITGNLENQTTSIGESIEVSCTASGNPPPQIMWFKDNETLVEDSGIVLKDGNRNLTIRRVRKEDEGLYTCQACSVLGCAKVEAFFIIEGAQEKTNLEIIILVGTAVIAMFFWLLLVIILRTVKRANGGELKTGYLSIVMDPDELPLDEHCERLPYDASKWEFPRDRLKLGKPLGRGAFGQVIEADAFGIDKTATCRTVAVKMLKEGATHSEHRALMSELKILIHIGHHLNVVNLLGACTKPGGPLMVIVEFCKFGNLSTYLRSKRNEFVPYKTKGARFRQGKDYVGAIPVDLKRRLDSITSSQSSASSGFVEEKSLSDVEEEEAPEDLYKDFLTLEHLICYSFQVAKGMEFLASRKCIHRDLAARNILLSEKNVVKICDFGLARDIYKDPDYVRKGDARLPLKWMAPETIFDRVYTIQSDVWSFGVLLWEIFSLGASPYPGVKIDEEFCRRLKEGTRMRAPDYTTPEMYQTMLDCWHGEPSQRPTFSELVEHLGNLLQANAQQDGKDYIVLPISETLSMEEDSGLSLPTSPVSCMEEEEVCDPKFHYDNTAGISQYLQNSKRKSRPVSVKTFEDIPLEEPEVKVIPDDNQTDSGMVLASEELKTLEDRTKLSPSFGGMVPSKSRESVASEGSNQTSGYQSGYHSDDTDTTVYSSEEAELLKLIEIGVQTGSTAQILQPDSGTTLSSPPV
T3 sequence (P22607 23-806 V555M): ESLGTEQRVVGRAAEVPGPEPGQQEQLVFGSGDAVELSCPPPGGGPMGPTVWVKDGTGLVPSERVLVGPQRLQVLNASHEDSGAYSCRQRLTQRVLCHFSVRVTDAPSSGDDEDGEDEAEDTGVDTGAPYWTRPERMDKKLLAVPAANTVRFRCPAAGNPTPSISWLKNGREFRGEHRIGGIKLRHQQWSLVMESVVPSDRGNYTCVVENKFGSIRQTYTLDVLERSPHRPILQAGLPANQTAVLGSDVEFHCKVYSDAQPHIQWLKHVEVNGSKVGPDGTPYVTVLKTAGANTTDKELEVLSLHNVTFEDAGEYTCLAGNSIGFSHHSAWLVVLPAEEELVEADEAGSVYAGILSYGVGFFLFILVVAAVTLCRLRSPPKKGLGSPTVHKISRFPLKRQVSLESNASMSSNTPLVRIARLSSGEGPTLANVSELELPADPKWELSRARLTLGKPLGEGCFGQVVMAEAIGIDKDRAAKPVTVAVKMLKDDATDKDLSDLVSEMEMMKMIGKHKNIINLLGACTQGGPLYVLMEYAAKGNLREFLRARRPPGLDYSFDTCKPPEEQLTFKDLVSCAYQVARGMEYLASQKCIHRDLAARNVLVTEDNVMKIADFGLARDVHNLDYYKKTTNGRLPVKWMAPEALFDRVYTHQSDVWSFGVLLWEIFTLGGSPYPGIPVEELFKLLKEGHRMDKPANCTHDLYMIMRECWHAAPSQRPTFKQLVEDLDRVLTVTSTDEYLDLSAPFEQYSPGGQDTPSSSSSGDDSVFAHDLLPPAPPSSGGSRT
T1 sequence (P11362 22-822 V561M): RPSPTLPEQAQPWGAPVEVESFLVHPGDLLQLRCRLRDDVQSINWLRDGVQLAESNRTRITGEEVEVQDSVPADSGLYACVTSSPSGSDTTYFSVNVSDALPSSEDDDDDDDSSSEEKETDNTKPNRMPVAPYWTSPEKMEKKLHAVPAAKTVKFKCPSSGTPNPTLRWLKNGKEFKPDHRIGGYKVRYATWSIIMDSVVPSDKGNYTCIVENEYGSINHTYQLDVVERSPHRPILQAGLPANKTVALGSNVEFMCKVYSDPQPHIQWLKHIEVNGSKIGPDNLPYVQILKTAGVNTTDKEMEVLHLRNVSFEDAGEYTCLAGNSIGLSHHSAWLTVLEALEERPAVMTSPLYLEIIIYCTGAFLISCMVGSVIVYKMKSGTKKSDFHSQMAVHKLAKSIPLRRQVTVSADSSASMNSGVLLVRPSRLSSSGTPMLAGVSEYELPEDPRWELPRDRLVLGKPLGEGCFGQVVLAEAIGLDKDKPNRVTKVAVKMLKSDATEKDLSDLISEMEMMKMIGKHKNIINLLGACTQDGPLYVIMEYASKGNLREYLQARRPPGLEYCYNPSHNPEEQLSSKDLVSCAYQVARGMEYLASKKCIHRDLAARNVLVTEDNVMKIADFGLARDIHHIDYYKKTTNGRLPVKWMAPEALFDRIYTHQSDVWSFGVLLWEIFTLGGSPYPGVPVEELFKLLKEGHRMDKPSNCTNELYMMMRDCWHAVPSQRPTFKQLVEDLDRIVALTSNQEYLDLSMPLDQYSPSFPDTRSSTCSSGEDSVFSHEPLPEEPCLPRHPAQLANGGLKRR

IC50 [1]	IC50 [2]	IC50 [3]	IC50 [4]	IC50 [5]	IC50 [6]	IC50 [7]	IC50 [8]	SMILES
2.2 nM	0.84 nM	2.1 nM	66.2 nM	–	–	–	–	CC(Oc1ccc2[nH]nc(C(=O)Nc3cnn(CCC4(O)CC4)c3)c2c1)c1c(Cl)cncc1Cl (stereo not drawn) [Compound 15, 5-(1-(3,5-dichloropyridin-4-yl)ethoxy)-N-(1-(2-(1-hydroxycyclopropyl)ethyl)-1H-pyrazol-4-yl)-1H-indazole-3-carboxamide]
0.91 nM	0.6 nM	0.79 nM	179 nM	–	–	–	–	CC(Oc1ccc2[nH]nc(C(=O)Nc3cnn(CC4CCN(C)CC4)c3)c2c1)c1c(Cl)cncc1Cl (stereo not drawn) [Compound 22]
–	–	–	–	114 nM	0.92 nM	2.2 nM	0.47 nM	CC(Oc1ccc2[nH]nc(C(=O)Nc3cnn(CC(=O)N4CCCC4)c3)c2c1)c1c(Cl)cncc1Cl (stereo not drawn) [Compound 23, 5-(1-(3,5-dichloropyridin-4-yl)ethoxy)-N-(1-(2-oxo-2-(pyrrolidin-1-yl)ethyl)-1H-pyrazol-4-yl)-1H-indazole-3-carboxamide]
–	–	–	–	41 nM	0.11 nM	0.88 nM	0.07 nM	C[C@@H](Oc1ccc2[nH]nc(C(=O)Nc3cnn(CCN(C)C)c3)c2c1)c1c(Cl)cncc1Cl [Compound 36, (R)-5-(1-(3,5-dichloropyridin-4-yl)ethoxy)-N-(1-(2-(dimethylamino)ethyl)-1H-pyrazol-4-yl)-1H-indazole-3-carboxamide]
–	–	–	–	169 nM	0.44 nM	1.1 nM	0.43 nM	C[C@@H](Oc1ccc2[nH]nc(C(=O)Nc3cnn(CC4CCCN4C)c3)c2c1)c1c(Cl)cncc1Cl (stereo partly drawn) [Compound 42]
–	–	–	–	144 nM	0.25 nM	2.3 nM	0.93 nM	CC(Oc1ccc2[nH]nc(C(=O)Nc3cnn(CCCO)c3)c2c1)c1c(Cl)cncc1Cl (stereo not drawn) [Compound 29, 5-(1-(3,5-dichloropyridin-4-yl)ethoxy)-N-(1-(3-hydroxypropyl)-1H-pyrazol-4-yl)-1H-indazole-3-carboxamide]
–	–	–	–	145 nM	0.21 nM	3.6 nM	0.26 nM	CC(Oc1ccc2[nH]nc(C(=O)Nc3cnn(CCN4CCCC4)c3)c2c1)c1c(Cl)cncc1Cl (stereo not drawn) [Compound 25, 5-(1-(3,5-dichloropyridin-4-yl)ethoxy)-N-(1-(2-(pyrrolidin-1-yl)ethyl)-1H-pyrazol-4-yl)-1H-indazole-3-carboxamide]

Further lines, the compound ahead of its results:

SMILES	IC50 [1]	IC50 [2]	IC50 [3]	IC50 [4]	IC50 [5]	IC50 [6]	IC50 [7]	IC50 [8]
CC(Oc1ccc2[nH]nc(C(=O)Nc3cnn(C4CN(C)C4)c3)c2c1)c1c(Cl)cncc1Cl (stereo not drawn) [Compound 21, 5-(1-(3,5-dichloropyridin-4-yl)ethoxy)-N-(1-(1-methylazetidin-3-yl)-1H-pyrazol-4-yl)-1H-indazole-3-carboxamide]	0.27 nM	0.09 nM	0.15 nM	39.4 nM	–	–	–	–
CC(Oc1ccc2[nH]nc(C(=O)Nc3ccc(N4C[C@@H](C)N[C@@H](C)C4)cn3)c2c1)c1c(Cl)cncc1Cl (stereo partly drawn) [Compound 16, 5-(1-(3,5-dichloropyridin-4-yl)ethoxy)-N-(5-((3S, 5R)-3,5-dimethylpiperazin-1-yl)pyridin-2-yl)-1H-indazole-3-carboxamide]	22.8 nM	34.1 nM	41.7 nM	1210 nM	–	–	–	–
CC(Oc1ccc2[nH]nc(C(=O)Nc3ccc(N4C[C@@H](C)N[C@@H](C)C4)c(F)c3)c2c1)c1c(Cl)cncc1Cl (stereo partly drawn) [Compound 17, 5-(1-(3,5-dichloropyridin-4-yl)ethoxy)-N-(4-((3S, 5R)-3,5-dimethylpiperazin-1-yl)-3-fluorophenyl)-1H-indazole-3-carboxamide]	8.6 nM	2.3 nM	6.9 nM	173 nM	–	–	–	–
CC(Oc1ccc2[nH]nc(C(=O)Nc3ccc(N4CCOCC4)nc3)c2c1)c1c(Cl)cncc1Cl (stereo not drawn) [Compound 4, 5-(1-(3,5-dichloropyridin-4-yl)ethoxy)-N-(6-morpholinopyridin-3-yl)-1H-indazole-3-carboxamide]	95.1 nM	9.5 nM	–	1590 nM	–	–	–	–
C[C@@H](Oc1ccc2[nH]nc(C(=O)Nc3cnn(C4CC(O)C4)c3)c2c1)c1c(Cl)cncc1Cl (stereo partly drawn) [Compound 35, (R)-5-(1-(3,5-dichloropyridin-4-yl)ethoxy)-N-(1-(3-hydroxycyclobutyl)-1H-pyrazol-4-yl)-1H-indazole-3-carboxamide]	–	–	–	–	89 nM	0.27 nM	0.29 nM	0.16 nM
CC(Oc1ccc2[nH]nc(C(=O)Nc3ccc(N4CC[C@@H](O)C4)cc3)c2c1)c1c(Cl)cncc1Cl (stereo partly drawn) [Compound 3, 5-(1-(3,5-dichloropyridin-4-yl)ethoxy)-N-(4-((R)-3-hydroxypyrrolidin-1-yl)phenyl)-1H-indazole-3-carboxamide]	69.7 nM	22.1 nM	–	> 10000 nM	–	–	–	–
C[C@@H](Oc1ccc2[nH]nc(C(=O)Nc3cnn(CC(C)(C)O)c3)c2c1)c1c(Cl)cncc1Cl [Compound 38, (R)-5-(1-(3,5-dichloropyridin-4-yl)ethoxy)-N-(1-(2-hydroxy-2-methylpropyl)-1H-pyrazol-4-yl)-1H-indazole-3-carboxamide]	–	–	–	–	61 nM	0.59 nM	3.7 nM	0.4 nM
CC(Oc1ccc2[nH]nc(C(=O)Nc3cnn(CC(=O)N(C)C)c3)c2c1)c1c(Cl)cncc1Cl (stereo not drawn) [Compound 24, 5-(1-(3,5-dichloropyridin-4-yl)ethoxy)-N-(1-(2-(dimethylamino)-2-oxoethyl)-1H-pyrazol-4-yl)-1H-indazole-3-carboxamide]	–	–	–	–	201 nM	1.3 nM	3.3 nM	0.43 nM
C[C@@H](Oc1ccc2[nH]nc(C(=O)Nc3cnn(Cc4ccncc4)c3)c2c1)c1c(Cl)cncc1Cl [Compound 50, (R)-5-(1-(3,5-dichloropyridin-4-yl)ethoxy)-N-(1-(pyridin-4-ylmethyl)-1H-pyrazol-4-yl)-1H-indazole-3-carboxamide]	–	–	–	–	152 nM	0.64 nM	1.7 nM	0.37 nM
CC(Oc1ccc2[nH]nc(C(=O)Nc3cnn(C(C)C)c3)c2c1)c1c(Cl)cncc1Cl (stereo not drawn) [Compound 26, 5-(1-(3,5-dichloropyridin-4-yl)ethoxy)-N-(1-isopropyl-1H-pyrazol-4-yl)-1H-indazole-3-carboxainide]	–	–	–	–	255 nM	2.9 nM	11.4 nM	1.8 nM
